Results reported in patent publication US7776913B2, “Carnitines for treating or preventing disorders caused by andropause” (Sigma-Tau Industrie Farmaceutiche Riunite S.p.A., priority 2002, dated 2010).

Key:
[1] = tested on: Patients aged over 60 years with lowered blood concentrations of free and total testosterone; test: International Index of Erectile Function questionnaire (IIEF-15); assay type: in vivo, human
Source text: (§1) Reported here below is a clinical trial conducted in order to evaluate the activity of the combination according to the association in the treatment of the symptoms of male ageing.
(§2) Patients aged over 60 years with lowered blood concentrations of free and total testosterone (The Aging Male 4: 151-162, 2001) and complaining of symptoms figuring in the working definition of andropause proposed by the International Society for the Study of the Aging Male (I.S.S.A.M.) (The Aging Male 4: 151-162, 2001): reduced libido or sex drive and erectile function, depressed mood, difficulty concentrating, irritability and fatigue.
(§3) The above-mentioned compounds were presented to the patients in anonymous containers and administered for 6 months.
(§4) Medical history-taking and physical examinations were done for all patients. The following data were also collected prior to the start of treatment, after 1, 3 and 6 months of treatment: • 1. Total blood prostate-specific antigen (PSA) (ng/ml) as measured with the automatic test and monoclonal antibodies [Rigatti P., Scattoni V.: PSA: Antigene prostatico specifico. Edizioni Medico Scientifiche (EDIMES) Pavia, 1997]. • 2. Prostate volume (cm^3) as measured by suprapubic ultrasonography and calculated by means of the three diameters rule [Rigatti P. Scattoni V.: PSA: Antigene prostatico specifico. Edizioni Medico Scientifiche (EDIMES) Pavia, 1997]. • 3. Peak systolic volume (PSV) (cm/sec), end-diastolic velocity (EDV) (cm/sec), and Resistance Index (RI) (%) of the penile arteries (right and left cavernous e dorsal) as measured by means of penile basal and dynamic colour Doppler ultrasonography. RI was calculated as follows: (PSV-EDV/EDV)×100 (Urology 1997: 49: 822-830). • 4. Duration of full erections (in minutes) in the course of a recording period of three nights performed with Rigiscan. […] Free and total blood testosterone, LH and prolactin levels (The Aging Male 4: 151-162, 2001). • 6. Sexual function was checked by means of semistructured interviews and administration of the International Index of Erectile Function (IIEF-15) (Urology 1997: 49: 822-830). A score was calculated for each patient. • 7. Depression was quantified by means of the Hamilton Depression Scale questionnaire (DMS III) (Cancer 94: 2481-2489, 2002). A score was calculated for each patient. • 8. The subjective sensation of fatigue was calculated using the fatigue scale (Lison L.: Statistica applicata alla biologia sperimentale. Milano: Casa Editrice Ambrosiana, 1972). A score was calculated for each patient. • 9. Side effects.
(§5) Blood concentrations of PSA, free and total testosterone, prolactin LH, prostate volume, PSV, EDV, RI, full erection duration, IIEF-15, DMS III, and fatigue scale scores were compared between and within groups by means of factorial analysis of variance for randomised blocks (1 patient=1 block). Comparison of the mean values was done on the raw data with the exclusion of RI which used data subjected to angular transformation (sin^−1 √P/100) for the comparisons. Side effects were compared using the chi-square etst (Lison L.: Statistica applicata alla biologia sperimentale. Milano: Casa Editrice Ambrosiana, 1972).

[2] = tested on: Patients aged over 60 years with lowered blood concentrations of free and total testosterone; test: Fatigue scale; assay type: in vivo, human; details: for Fatigue scale score: mean ± SD
Source text: as §1, §2, §3, §4, §5

[3] = tested on: Patients aged over 60 years with lowered blood concentrations of free and total testosterone; test: Total blood prostate-specific antigen (PSA) in the clinical trial; details: for PSA: mean ± SD, 15 patients
Source text: as §1, §2, §3
as §4, with “effects. […]” for “effects.”

[4] = tested on: Patients aged over 60 years with lowered blood concentrations of free and total testosterone; test: Penile dynamic colour Doppler ultrasonography (PSV, EDV, RI of cavernous arteries); assay type: in vivo, human; details: mean ± SD
Source text: as §1, §2, §3, §4, §5

In the case of testosterone undecaonate, the “IIEF-15 General Satisfaction section score (Table 18 title)” value ([1]; 6 months of therapy, mean ± SD) is reported as 4.4 ± 2.2, the “IIEF-15 Intercourse Satisfaction section score” value ([1]; 6 months of therapy, mean ± SD) is reported as 5.8 ± 1.9 and the “IIEF-15 Orgasmic Function section score (Table 17 title)” value ([1]; 6 months of therapy, mean ± SD) is reported as 4.7 ± 1.8. The “IIEF-15 Sexual Desire section score” value ([1]; 6 months of therapy, mean ± SD) was 7.1 ± 0.9, the “Intercourse satisfaction (in words)” value ([1]; IIEF-15, Table 15) was “significantly increased” and the “Sexual desire (in words)” value ([1]; IIEF-15, Table 16) was “significantly increased”. For the same substance, the “Change in IIEF-15 Orgasmic Function scores (Table 18)” value ([1]; at 3 months, F=12.6, P<0.01) was “significantly increased”, the “IIEF-15 Erectile Function section score” value ([1]; before therapy, mean ± SD) was 13.8 ± 2.7 and the “IIEF-15 General Satisfaction section score (Table 18 title)” value ([1]; before therapy, mean ± SD) was 3.2 ± 0.6. The “IIEF-15 Intercourse Satisfaction section score” value ([1]; before therapy, mean ± SD) was 4.1 ± 0.8, the “IIEF-15 Orgasmic Function section score (Table 17 title)” value ([1]; before therapy, mean ± SD) was 3.2 ± 1.2 and the “IIEF-15 Sexual Desire section score” value ([1]; before therapy, mean ± SD) was 4.3 ± 1.0. The “Change in IIEF-15 Erectile Function scores (in words)” value ([1]; both at 3 months and 6 months) was “significant increase”, the “Erectile activity (in words)” value ([1]; conclusion from Table 14) was “significantly increase” and the “Change in IIEF-15 General Satisfaction scores (text on Table 17)” value ([1]; time not stated) was “failed to induce any significant changes”. For the same substance, the Fatigue scale score ([2]; 3 months of therapy) was 1.1 ± 1.0, the Fatigue scale score ([2]; 6 months of therapy) was 0.6 ± 0.4 and the “Change in fatigue scale score (in words)” value ([2]; at 3 months, F=33.6, P<0.01) was “statistically significant increase”. For the same substance, the “Change in fatigue scale score (in words)” value ([2]; at 6 months, F=5.9, P=n.s.) was “no significant increase”, the Fatigue scale score ([2]; before therapy) was 2.8 ± 1.3 and the “Activity in increasing the sensation of general well-being, comparison” value ([2]; conclusion from Table 20) was “significantly more active than placebo”. The PSA ([3]; 3 months of therapy) was 2.01 ± 0.79 ng/mL, the PSA ([3]; 6 months of therapy) was 2.02 ± 0.85 ng/mL and the PSA ([3]; before therapy) was 2.02 ± 0.74 ng/mL. For the same substance, the “Change in blood PSA levels (in words)” value ([3]; during and after therapy vs before) was “did not significantly increase”, the “Left cavernous PSV” value ([4]; 3 months of therapy) was 32.6 ± 4.2 cm/sec and the “Left cavernous artery EDV” value ([4]; 3 months of therapy) was 7.5 ± 3.3 cm/s. The “Right cavernous artery EDV” value ([4]; 3 months of therapy) was 7.9 ± 3.6 cm/s, the “Right cavernous artery PSV” value ([4]; 3 months of therapy) was 32.8 ± 4.2 cm/sec and the “Left cavernous PSV” value ([4]; 6 months of therapy) was 33.5 ± 3.5 cm/sec. The “Left cavernous artery EDV” value ([4]; 6 months of therapy) was 7.4 ± 3.3 cm/s, the “Right cavernous artery EDV” value ([4]; 6 months of therapy) was 7.9 ± 3.6 cm/s and the “Right cavernous artery PSV” value ([4]; 6 months of therapy) was 33.7 ± 3.7 cm/sec. The “Left cavernous PSV” value ([4]; before therapy) was 33.6 ± 3.7 cm/sec, the “Left cavernous artery EDV” value ([4]; before therapy) was 7.7 ± 3.5 cm/s and the “Right cavernous artery EDV” value ([4]; before therapy) was 7.8 ± 3.6 cm/s. The “Right cavernous artery PSV” value ([4]; before therapy) was 33.2 ± 3.9 cm/sec.
